For 46 molecules, IC50, Activity and GI50 results are on record in ChEMBL document CHEMBL5543061, “Recent advances of antitumor leading compound Erianin: Mechanisms of action and structural modification” (Eur J Med Chem, 2023).

Where only a bound is given, the exact number is not on record here.

For the first assay, the system named is HeLa. Nature of the assay: Antiproliferative activity against human HeLa cells assessed as reduction in cell viability by MTT assay. It is filed as functional, cell-based.
Settings: not given
Background: Tetrazolium assays rely on reduction of a dye to a coloured formazan, in cell work by metabolically active cells.
As usually defined, the IC50 is the concentration at which inhibition is half-maximal. `COc1ccc(CCc2cc(OC)c(OC)c(OC)c2)cc1N`: the IC50 turned out to be 160 nM. For the molecule `CCOc1ccc(CCc2cc(OC)c(OC)c(OC)c2)cc1N`, the concentration for half-maximal inhibition (IC50) was determined as 200 nM. Same read-out and setting: as for `CCOc1ccc(CCc2cc(OC)c(OC)c(OC)c2)cc1O`, the figure is 110 nM.

The next assay concerns HepG2. Nature of the assay: Antiproliferative activity against human HepG2 cells assessed as inhibition of cell growth relative to control. The class given is functional. The arrangement: scale not given: the % may be the effect or the level left.
Settings: not given
For the molecule `COc1cc(CCc2ccc(OCCF)c(O)c2)cc(OC)c1OC`, the Activity is reported as 80.94%.

The test system of another assay is HepG2. Nature of the assay: Antiproliferative activity against human HepG2 cells assessed as reduction in cell growth. The class given is functional, cell-based.
Settings: not given
In the case of `COc1cc(CCc2ccc(OCCF)c(O)c2)cc(OC)c1OC`, the IC50 worked out at 72.8 nM.

Turning to `COc1cc(CCc2ccc(OC(=O)CCn3cc(F)c(=O)[nH]c3=O)c(O)c2)cc(OC)c1OC`, the IC50 was more than 500 nM. The same measure, in the same setting: with `CCCOc1ccc(CCc2cc(OC)c(OC)c(OC)c2)cc1O` the figure was more than 2000 nM.

For the next assay, the system named is HepG2. Nature of the assay: Anticancer activity against human HepG2 cells assessed as reduction in cell viability.
Settings: not given
It is filed as functional, cell-based.
In the case of `COc1ccc(CCc2cc(OC)c(OC)c(OC)c2)cc1OC(=O)c1c[nH]c2ccccc12`, the IC50 is more than 500 nM. Turning to `COc1ccc(CCc2cc(OC)c(OC)c(OC)c2)cc1OC(=O)c1ccsc1`, the IC50 was more than 500 nM. The same measure, in the same setting: with `COc1ccc(CCc2cc(OC)c(OC)c(OC)c2)cc1OC(=O)c1cncnc1` the figure was more than 500 nM; with `COc1ccc(CCc2cc(OC)c(OC)c(OC)c2)cc1OC(=O)c1cnc(C)nc1`, more than 500 nM; with `COc1ccc(CCc2cc(OC)c(OC)c(OC)c2)cc1OC(=O)c1cccnc1`, more than 500 nM.

On to `COc1ccc(CCc2cc(OC)c(OC)c(OC)c2)cc1OC(=O)c1cscn1`, for which the IC50 is more than 500 nM.

For the molecule `COc1ccc(CCc2cc(OC)c(OC)c(OC)c2)cc1OC(=O)c1ccoc1`, the IC50 was more than 500 nM. The same measure, in the same setting: as for `COc1ccc(CCc2cc(OC)c(OC)c(OC)c2)cc1OC(=O)c1ccnnc1`, the figure is more than 500 nM.

A further assay relates to HepG2. Nature of the assay: Cytotoxicity against human HepG2 cells.
Settings: not given
It is filed as functional, cell-based.
Molecule `COc1ccc(CCc2cc(OC)c(OC)c(OC)c2)cc1OC(=O)c1cncc(Cl)c1` gave a 50% inhibitory concentration (IC50) of 32.4 nM. Same read-out and setting: with `COc1ccc(CCc2cc(OC)c(OC)c(OC)c2)cc1OC(=O)c1cncc(Br)c1` the figure was 13.5 nM.

In the next assay the test system is SW480. Nature of the assay: Cytotoxicity against human SW480 cells assessed as reduction in cell viability incubated for 72 hrs by celltiter glo assay. It is filed as functional, cell-based. As to conditions: SW480, 72 h. In general terms: Cellular ATP, detected with luciferase, serves as a proxy for viable cell number.
As for `COc1cc(CCc2ccc(OC(F)F)c(O)c2)cc(OC)c1OC`, the IC50 was determined as 180 nM. On to `COc1ccc(/C=C\c2cc(OC)c(OC)c(OC)c2)cc1O` [COMBRETASTATIN A4], for which the IC50 came out at 270 nM.

A further assay relates to HeLa. Nature of the assay: Cytotoxicity against human HeLa cells assessed as reduction in cell growth incubated for 72 hrs by MTT assay.
Settings: not given
It is filed as functional, cell-based.
For `COc1cc(CCc2ccc(OC(F)F)c(OP(=O)(O)O)c2)cc(OC)c1OC`, the IC50 is 110 nM. On to `COc1cc(CCc2ccc(OC(F)F)c(NC(=O)CN)c2)cc(OC)c1OC`, for which the IC50 stood at 70 nM.

For the next assay, the system named is HeLa. Nature of the assay: Antiproliferative activity against human HeLa cells assessed cell growth reduction incubated for 48 hrs by MTT assay. It is filed as functional, cell-based.
Settings: not given
Turning to `COc1cc(CCc2ccc(C(C)(F)F)cc2NC(=O)CN)cc(OC)c1OC`, inhibition was half-maximal at 50 nM (IC50).

For `COc1cc(CCc2ccc(OC(C)(F)F)cc2N)cc(OC)c1OC`, it took 460 nM to reach half-maximal inhibition (IC50). For the molecule `COc1cc(CCc2ccc(OC(C)(F)F)cc2[N+](=O)[O-])cc(OC)c1OC`, inhibition was half-maximal at 130 nM (IC50). As for `COc1cc(CCc2ccc(OC(C)(F)F)cc2)cc(OC)c1OC`, the IC50 was determined as 110 nM.

In another assay the test system is HL-60. Nature of the assay: Cytotoxicity against human HL-60 cells assessed as reduction in cell viability incubated for 48 hrs by MTT assay. It is filed as functional, cell-based. As to conditions: HL-60, 48 h.
For the molecule `COc1ccc(CCc2cc(OC)c(OC)c(OC)c2)cc1OC(=O)CCC(=O)Oc1cc(CCc2cc(OC)c(OC)c(OC)c2)ccc1OC`, the IC50 was 82 nM. `COc1ccc(CCc2cc(OC)c(OC)c(OC)c2)cc1OC(=O)CCC(=O)O`: the IC50 is 48 nM.

A further assay has as its system HCT-116. Nature of the assay: Growth inhibition of human HCT-116 cells. The class given is functional.
Settings: not given
Broadly, the GI50 is the concentration that inhibits growth by half. `COc1cc(C(C)c2ccc3c(ccn3C)c2)cc(OC)c1OC` (stereo not drawn) gave a 50% growth inhibitory concentration (GI50) of 29 nM.

`COc1ccc(C(c2cc(OC)c(OC)c(OC)c2)C(F)F)cc1O` (stereo not drawn) returned a GI50 of 30 nM. The same measure, in the same setting: with `COc1ccc(C(C)c2cc(OC)c(OC)c(OC)c2)nc1` (stereo not drawn) the figure was 60 nM; with `COc1ccc(C(C)c2cc(C)c(OC)c(OC)c2)cc1OP(=O)(O)O` (stereo not drawn), 100 nM.

As to `COc1ccc(C(C)c2cc(OC)c(OC)c(OC)c2)cc1N` (stereo not drawn), the GI50 came to 60 nM. Same read-out and setting: as for `COc1ccc(C(CC#N)c2cc(OC)c(OC)c(OC)c2)cc1O` (stereo not drawn), the figure is 50 nM.

For another assay, the system named is HCT-116. Nature of the assay: Growth inhibition of human HCT-116 cells measured for 48 hrs by SRB assay.
Settings: not given
It is filed as functional. Background: The SRB assay estimates cell density from bound dye.
Take `COc1ccc(Cc2cc(OC)c(OC)c(OC)c2)cc1O`: the GI50 stood at 6000 nM.

`COc1ccc(C(c2cc(OC)c(OC)c(OC)c2)C(F)F)cc1O` (stereo not drawn) had a GI50 of 30 nM. For the molecule `CCOc1cc(C(C)c2ccc(OC)c(N)c2)ccc1OC` (stereo not drawn), the GI50 was 6000 nM. Same read-out and setting: as for `COc1cc(OC)cc(C(C)c2ccc(OC)c(N)c2)c1` (stereo not drawn), the figure is 300 nM; as for `COc1ccc(C(C)c2cc(OC)c(OC)c(OC)c2)cc1N` (stereo not drawn), 28 nM. The same measure, in the same setting: with `COc1ccc(C(CC#N)c2cc(OC)c(OC)c(OC)c2)cc1O` (stereo not drawn) the figure was 50 nM.

The next assay relates to HCT-116. Nature of the assay: Cytotoxicity against human HCT-116 cells assessed as reduction in cell viability incubated for 72 hrs by MTS assay. The class given is functional, cell-based. The conditions noted are these: HCT-116, 72 h.
For the molecule `CN(c1ccc2c(ccn2C)c1)c1cc(C(F)(F)F)nc2ccccc12`, the IC50 came out at 3 nM. The same measure, in the same setting: with `CN(c1ccc2c(c1)c1ccccc1n2C)c1cc(Cl)nc2ccccc12` the figure was 16 nM; with `COc1ccc(N(C)c2cc(C)nc3ccccc23)nc1N`, 1 nM. Still for that read-out and setting: as for `CN(c1ccc2c(c1)c1ccccc1n2C)c1nc(Cl)nc2ccccc12`, the figure is 1 nM; as for `Cc1nc(N(C)c2ccc3c(c2)c2ccccc2n3C)c2ccccc2n1`, 2 nM; as for `COc1cccc2c(N(C)c3ccc4c(c3)c3ccccc3n4C)cc(C)nc12`, 21 nM. The same measure, in the same setting: with `Cc1cc(N(C)c2ccc3c(n2)OCCO3)c2ccccc2n1` the figure was 20 nM.

The next assay concerns A2780. Nature of the assay: Cytotoxicity against human A2780 cells assessed as reduction in cell viability incubated for 72 hrs by MTS assay. The class given is functional, cell-based. As to conditions: A2780, 72 h.
As for `Cc1cc(N(C)c2ccc3c(c2)c2ccccc2n3C)c2ccccc2n1`, the IC50 was found to be 0.28 nM. Same read-out and setting: as for `CN(c1ccc2c(ccn2C)n1)c1nc(Cl)nc2ccccc12`, the figure is 0.24 nM.

For another assay, the system named is MIA PaCa-2. Nature of the assay: Cytotoxicity against human MIA PaCa-2 cells assessed as reduction in cell viability incubated for 72 hrs by MTS assay. The class given is functional, cell-based. The conditions noted are these: MIA PaCa-2, 72 h.
Turning to `Cc1cc(N(C)c2ccc3c(c2)c2ccccc2n3C)c2ccccc2n1`, the IC50 was determined as 0.28 nM. On the same count and under the same terms, as for `CN(c1ccc2c(ccn2C)n1)c1nc(Cl)nc2ccccc12`, the figure is 0.24 nM.

The test system of another assay is K562. Nature of the assay: Cytotoxicity against human K562 cells assessed as reduction in cell viability incubated for 72 hrs by MTS assay. It is filed as functional, cell-based. The conditions noted are these: K562, 72 h.
On to `Cc1cc(N(C)c2ccc3c(c2)c2ccccc2n3C)c2ccccc2n1`, for which the IC50 is 0.28 nM. Same read-out and setting: with `CN(c1ccc2c(ccn2C)n1)c1nc(Cl)nc2ccccc12` the figure was 0.24 nM.

A further assay relates to A2780cisR. Nature of the assay: Antiproliferative activity against human cisplatin-resistant A2780 cells assessed as reduction in cell viability incubated for 72 hrs by MTS assay. It is filed as functional, cell-based.
Settings: not given
Turning to `Cc1cc(N(C)c2ccc3c(c2)c2ccccc2n3C)c2ccccc2n1`, the IC50 was 0.24 nM.

Regarding `Cc1cc(N(C)c2ccc3c(n2)OCCO3)c2ccccc2n1`, the IC50 was 0.28 nM.

Another assay relates to JIMT-1. Nature of the assay: Antiproliferative activity against human JIMT-1 cells assessed as reduction in cell viability incubated for 72 hrs by MTS assay. It is filed as functional, cell-based. The conditions noted are these: JIMT-1, 72 h.
For the molecule `Cc1cc(N(C)c2ccc3c(c2)c2ccccc2n3C)c2ccccc2n1`, the IC50 came to 0.28 nM. With `CN(c1ccc2c(ccn2C)n1)c1nc(Cl)nc2ccccc12`, the IC50 was found to be 0.24 nM.

For a further assay, the system named is HeLa. Nature of the assay: Cytotoxicity against human HeLa cells assessed as reduction in cell viability after 72 hrs by MTS assay. The class given is functional, cell-based.
Settings: not given
As to `COc1ccc(CCc2cc(OC)c(OC)c(OC)c2)cc1OC(=O)CCCCCNC(=O)CCCC[C@@H]1SC[C@@H]2NC(=O)N[C@@H]21`, the half-inhibitory concentration (IC50) turned out to be 26 nM. The same measure, in the same setting: as for `COc1ccc(CCc2cc(OC)c(OC)c(OC)c2)cc1OC(=O)CCCC[C@H]1SC[C@H]2NC(=O)N[C@H]21`, the figure is 494 nM.
